For assay [1], the system named is cultured human mast cells (CHMC). Nature of the assay: CHMC low cell density ionomycin activation: tryptase assay. The format is cell-based. To be noted: Homo sapiens, Mast cell, Low Density CHMC, ionomycin activation, tryptase readout; read-out: CHMC Ionomycin Tryptase.
For assay [2] the test system is unchanged. Briefly: CHMC low cell density IgE activation: tryptase and LTC4 assays. Type of assay: cell-based. To be noted: Homo sapiens, Mast cell, Low Density CHMC, anti-IgE activation, tryptase readout; read-out: CHMC anti-IgE Tryptase. The method in brief:
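Cultured human mast cells at low density (1000-1500 per well) rested 1 h at 37° C, then stimulated with anti-IgE for 30 min at 37° C. Supernatant tryptase measured with fluorogenic substrate (30 min, room temperature); LTC4 quantified by ELISA on diluted supernatant.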

Take `COC(=O)c1cccc(Nc2ncc(F)c(Nc3cccc(C(=O)OC)c3)n2)c1` [Compound R945035, N2,N4-Bis(3-methoxycarbonylphenyl)-5-fluoro-2,4-pyrimidinediamine]: the IC50 in assay [1] and in assay [2] was above 10 µM throughout.
Take `Fc1cnc(Nc2ccc3cc[nH]c3c2)nc1Nc1ccc2c(c1)OCCO2` [Compound R926750, N4-(3,4-Ethylenedioxyphenyl)-5-fluoro-N2-[(1H)-indol-6-yl]-2,4-pyrimidinediamine]: the IC50 was above 10 µM in assay [1] and 0.361 µM in assay [2].
On the same counts, the results for `Oc1cccc(Nc2nc(Nc3ccc4c(c3)CCO4)ncc2F)c1` [Compound R909250, N2-(2,3-Dihydrobenzofuran-5-yl)-5-fluoro-N4-(3-hydroxyphenyl)-2,4-pyrimidinediamine] are above 10 µM and 8.03 µM.
On the same counts, the results for `Fc1cc(Nc2ncc(F)c(Nc3ccc4c(c3)OCCO4)n2)cc(C(F)(F)F)c1` [Compound R926894, N4-(3,4-Ethylenedioxyphenyl)-5-fluoro-N2-(3-fluoro-5-trifluoromethylphenyl)-2,4-pyrimidinediamine] are above 10 µM and above 10 µM.
Take `Oc1cccc(Nc2nc(Nc3cc(Cl)c(O)c(Cl)c3)ncc2F)c1` [Compound R926890, 5-Fluoro-N2-(3,5-dichloro-4-hydroxyphenyl)-N4-(3-hydroxyphenyl)-2,4-pyrimidinediamine]: the results for the IC50 in assay [1] and in assay [2] were above 10 µM and 0.361 µM, respectively.
As for `Cc1ccc(F)c(Nc2ncc(F)c(Nc3ccc4c(c3)OCCO4)n2)c1` [Compound R926897, N4-(3,4-Ethylenedioxyphenyl)-5-fluoro-N2-(2-fluoro-5-methylphenyl)-2,4-pyrimidinediamine], the IC50 in assay [1] is above 10 µM; in assay [2] it was 1.73 µM.
The corresponding values for `COC(=O)c1cc(N)cc(Nc2ncc(F)c(Nc3cc(N)cc(C(=O)OC)c3)n2)c1` [Compound R950134, N2,N4-Bis(3-amino-5-methoxycarbonylphenyl)-5-fluoro-2,4-pyrimidinediamine] are above 10 µM and 1.88 µM.
The corresponding values for `Cc1cc(CNc2ncc(F)c(Nc3cccc(O)c3)n2)c(C)o1` [Compound R945162, N2-[(2,5-Dimethyl-3-furyl)methyl]-5-fluoro-N4-(3-hydroxyphenyl)-2,4-pyrimidinediamine] are above 10 µM and above 10 µM.
The corresponding values for `Fc1cnc(Nc2cccc(-c3nnn[nH]3)c2)nc1Nc1ccc2c(c1)OCCO2` [Compound R926843, 5-Fluoro-N4-(3,4-ethylenedioxyphenyl)-N2-[3-(tetrazol-5-yl)phenyl]-2,4-pyrimidinediamine] are above 10 µM and 7.37 µM.
`Fc1cnc(Nc2cccc(-c3ccccc3)c2)nc1Nc1cccc(-c2ccccc2)c1` [Compound R926403, N2,N4-Bis[(3-phenyl)phenyl]-5-fluoro-2,4-pyrimidinediamine]: the IC50 in assay [1] and in assay [2] was above 10 µM each time.
Turning to `Nc1cc(Nc2ccnc(Nc3ccc(Nc4ccccc4)c(N)c3)n2)ccc1Nc1ccccc1` [Compound R950123, N2,N4-Bis[3-amino-4-(N-phenylamino)-phenyl]-2,4-pyrimidinediamine], the IC50 in assay [1] came out at 8.45 µM; in assay [2], 3.25 µM.
The corresponding values for `Oc1ccc(CCNc2ncc(Br)c(NCCc3ccc(O)cc3)n2)cc1` [Compound R925792, N2,N4-Bis[2-(4-hydroxyphenyl)ethyl]-5-bromo-2,4-pyrimidinediamine] are above 10 µM and 6.25 µM.
The corresponding values for `Oc1cccc(Nc2ncc(F)c(NCc3cccnc3)n2)c1` [Compound R945147, 5-Fluoro-N2-(3-hydroxyphenyl)-N4-(3-pyridylmethyl)-2,4-pyrimidinediamine] are above 10 µM and 3.55 µM.

The record behind these values is US10828301B2, “2,4-pyrimidinediamine compounds and their uses” (Rigel Pharmaceuticals, Inc, priority 2002, dated 2020).
